Source: US20050091702A1, “Expression of polypeptides in rod outer segment membranes” (priority 2001, published 2005)
Values belong to the molecule of their own block, whether it stands above or below them.

Assays:
[1] = target: endogenous G proteins in retina rod cells; test: cell-based or functional assay
[2] = target: transducin in ROS membrane (Xenopus laevis); test: cell-based or functional assay
5HT1A receptor [3] = target: T1, 5HT1A receptor (Homo sapiens, UniProt P08908); test: [35S]GTPγS binding to transgenic tadpole membranes expressing 5HT1A; format: biochemical
T1 construct: expressed in transfected cells; host or cells: transgenic Xenopus laevis tadpoles (rod cells; homogenized membranes), transgene pXOP-5HTR-GFP-1D4
Experimental: (§1) A receptor binding assay was performed to determine retention of functional receptor using [^35S]GTPγS labeled receptor ligand. Transgenic tadpoles (stage 48 or older) or CHO cells expressing 5HT1A receptors were homogenized in binding buffer (20 mM HEPES, pH 7.4, 10 mM MgCl2, 1 mM EDTA, 100 mM NaCl). The binding assay was performed in 96-well Scintiplate (PerkinElmer). To reduce [^35S]-GTPγS binding to rhodopsin-activated transducin in retina membrane, the membrane from tadpoles was preincubated with 10 mM hydroxylamine in binding buffer at room temperature for 60 min. The membranes (25 μg/well) were incubated with indicated ligands for 30 min in a total volume of 150 μl binding buffer containing 10 μM GDP, 0.5% BSA, 1 mM DTT), then 50 μl of […] [^35S]-GTPγS was added to each well to make a final concentration of 200 pM. The binding assays were carried out at room temperature for 60 min under gentle shaking. Final concentration of hydroxylamine in binding assay should be no more than 1 mM, Nonspecific binding was determined in the presence of 10 μM unlabelled GTPγS. Assays were terminated by centrifugation at 4000 g for 15 min and removal of supernatant. The radioactivity was measured by a TopCounter (PerkinElmer). Assays were performed in triplicate. […]
T1 sequence (P08908 with tags, fused parts or gaps): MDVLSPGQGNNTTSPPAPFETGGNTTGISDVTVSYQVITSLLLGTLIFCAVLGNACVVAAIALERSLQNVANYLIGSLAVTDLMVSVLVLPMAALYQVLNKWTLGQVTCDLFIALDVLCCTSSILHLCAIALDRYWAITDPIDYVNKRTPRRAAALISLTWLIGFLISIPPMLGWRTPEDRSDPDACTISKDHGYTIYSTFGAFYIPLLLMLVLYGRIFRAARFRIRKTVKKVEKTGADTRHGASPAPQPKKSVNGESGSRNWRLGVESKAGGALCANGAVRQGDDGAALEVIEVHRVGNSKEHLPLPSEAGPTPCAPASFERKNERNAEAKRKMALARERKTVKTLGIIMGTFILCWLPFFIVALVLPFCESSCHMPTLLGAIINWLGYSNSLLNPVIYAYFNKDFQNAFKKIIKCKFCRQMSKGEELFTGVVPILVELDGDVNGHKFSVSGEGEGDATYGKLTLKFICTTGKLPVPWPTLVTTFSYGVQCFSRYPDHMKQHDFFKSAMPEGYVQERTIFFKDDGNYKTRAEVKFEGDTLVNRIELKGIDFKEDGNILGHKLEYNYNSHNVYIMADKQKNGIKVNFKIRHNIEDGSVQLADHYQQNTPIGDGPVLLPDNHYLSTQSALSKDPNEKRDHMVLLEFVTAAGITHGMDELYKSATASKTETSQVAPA

5HT1A receptor [4] = target: T2, 5HT1A receptor (Homo sapiens, UniProt P08908); test: [35S]GTPγS binding to CHO membranes transiently expressing 5HT1A; format: biochemical; details: CHO cells expressing 5HT1A
T2 construct: expressed in transfected cells; host or cells: CHO cells (transient expression)
T2 sequence (P08908 1-422): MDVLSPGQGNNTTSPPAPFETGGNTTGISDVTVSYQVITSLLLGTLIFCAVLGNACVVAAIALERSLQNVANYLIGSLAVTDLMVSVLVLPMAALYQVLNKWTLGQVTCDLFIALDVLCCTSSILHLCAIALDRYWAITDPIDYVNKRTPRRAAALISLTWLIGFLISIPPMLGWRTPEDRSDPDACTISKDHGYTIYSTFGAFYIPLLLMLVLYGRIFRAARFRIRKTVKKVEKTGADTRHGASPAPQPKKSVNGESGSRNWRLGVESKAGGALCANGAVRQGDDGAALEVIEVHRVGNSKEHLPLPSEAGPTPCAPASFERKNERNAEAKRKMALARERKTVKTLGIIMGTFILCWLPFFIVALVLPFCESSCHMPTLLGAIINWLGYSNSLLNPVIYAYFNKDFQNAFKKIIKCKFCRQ
Experimental: as §1

[5] = target: T3, 5HT1AR-GFP-1D4 fusion protein (Homo sapiens, UniProt P08908); test: Saturation radioligand binding to transgenic tadpole membranes expressing 5HT1AR-GFP-1D4
T3 construct: expressed in transfected cells; host or cells: transgenic Xenopus laevis tadpoles (rod cells; homogenized membranes), transgene pXOP-5HTR-GFP-1D4
Experimental: (§2) Radioligand binding assay were performed using transgenic tadpoles (stage 48 or older) or CHO cells expressing 5HT1A receptors homogenized in binding buffer (50 mM Tris-HCl, pH 7.4, 2 mM MgCl2, 1 mM EDTA and proteinase inhibitor cocktail). The binding assay was performed in 96-well plate with [methyl-^3H]-MPPE as a radioligand. For saturation binding analyses, the membranes (20 μg/well) were incubated with 0.05% saponin in a final volume of 50 μl at room temperature for 10 min, and then incubated with 50 μl of [methyl-^3H]-MPPE (0-50 nM) for another 90 min. Nonspecific binding was determined in the presence of 10 μM serotonin. Assays were terminated by rapid filtration through GF/C filter plate with 4 times washes with washing buffer (20 mM Trics-HCl, pH 7.4). The radioactivity was measured by a TopCount (PerkinElmer). Assays were performed in duplicate.
(§3) Binding assays were performed to confirm that the 5HT1A receptor was expressed as a functional 5HT1AR-GPF-1D4 fusion protein in rod cell ROS of Xenopus tadpoles. Binding affinity was determined by measuring the binding affinity of [methyl-^3H]-MPPF, a radiolabeled selective ligand to the 5HT1A receptor, to the expressed fusion protein. Because the 5HT1A receptor expressed in ROS disk membranes is oriented with the extracellular side facing the interior of these disks and shielded from the solution, the detergent saponin was used to open up pores in these disk membranes and allow access to the ligands. Saponin at a concentration of 0.05% or more could effectively increase specific binding of [methyl-^3H]-MPPE to 5HT1AR transgenic tadpole membranes, but not to control tadpole membranes. […] Based on these observations, 0.05% saponin was included in all ligand binding assays.
(§4) Saturation binding assays were also performed to measure the binding affinity and compare it to 5HT1A receptor expressed in standard mammalian CHO cells. […] The low nanomolar affinity and extent of specific binding further corroborates that the 5HT1A receptor is properly folded in transgenic tadpoles. […]

5HT1A receptor [6] = target: T2, 5HT1A receptor; test: Saturation radioligand binding to membranes from CHO cells expressing the 5HT1A receptor; details: membrane samples from CHO cells expressing the 5HT1A receptor, read-out: binding affinity KD
Experimental: as §2
Saturation binding assays were also performed to measure the binding affinity and compare it to 5HT1A receptor expressed in standard mammalian CHO cells. […] The low nanomolar affinity and extent of specific binding further corroborates that the 5HT1A receptor is properly folded in transgenic tadpoles. […] For example, the effect on binding affinity may be due to different ligand kon or koff kinetic parameters, or different partition coefficients to the different lipids present in these membranes.

[7] = system: 5HT1AR-GFP-1D4 fusion protein; test: Saturation radioligand binding to transgenic tadpole membranes expressing 5HT1AR-GFP-1D4; set-up: species or system human; details: tadpole KD versus CHO KD
Experimental: as §2, §3, §4

CHO membranes = test: Hydroxylamine effect on [35S]GTPγS binding to CHO membranes; format: biochemical; details: 10 mM hydroxylamine
Experimental: as §1

[8] = target: T4, rhodopsin-transducin interaction (Xenopus laevis, UniProt P29403); test: Hydroxylamine inactivation of rhodopsin-mediated basal [35S]GTPγS binding in tadpole ROS membranes; format: biochemical; details: 10 mM hydroxylamine, room temperature
T4 construct: from tissue; host or cells: Xenopus laevis tadpole (retina/ROS) membranes
T4 sequence (P29403 1-354): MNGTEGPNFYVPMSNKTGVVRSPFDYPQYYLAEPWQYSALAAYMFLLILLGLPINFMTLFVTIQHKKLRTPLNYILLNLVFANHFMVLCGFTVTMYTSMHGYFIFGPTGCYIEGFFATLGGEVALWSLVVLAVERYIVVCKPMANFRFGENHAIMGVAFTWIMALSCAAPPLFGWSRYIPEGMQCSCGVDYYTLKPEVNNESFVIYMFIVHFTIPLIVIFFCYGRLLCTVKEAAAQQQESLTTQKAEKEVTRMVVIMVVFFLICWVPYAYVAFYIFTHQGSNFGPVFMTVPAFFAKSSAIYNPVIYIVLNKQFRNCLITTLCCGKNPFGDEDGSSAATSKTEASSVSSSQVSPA
Experimental: as §1

T3 sequence (P08908 with tags, fused parts or gaps): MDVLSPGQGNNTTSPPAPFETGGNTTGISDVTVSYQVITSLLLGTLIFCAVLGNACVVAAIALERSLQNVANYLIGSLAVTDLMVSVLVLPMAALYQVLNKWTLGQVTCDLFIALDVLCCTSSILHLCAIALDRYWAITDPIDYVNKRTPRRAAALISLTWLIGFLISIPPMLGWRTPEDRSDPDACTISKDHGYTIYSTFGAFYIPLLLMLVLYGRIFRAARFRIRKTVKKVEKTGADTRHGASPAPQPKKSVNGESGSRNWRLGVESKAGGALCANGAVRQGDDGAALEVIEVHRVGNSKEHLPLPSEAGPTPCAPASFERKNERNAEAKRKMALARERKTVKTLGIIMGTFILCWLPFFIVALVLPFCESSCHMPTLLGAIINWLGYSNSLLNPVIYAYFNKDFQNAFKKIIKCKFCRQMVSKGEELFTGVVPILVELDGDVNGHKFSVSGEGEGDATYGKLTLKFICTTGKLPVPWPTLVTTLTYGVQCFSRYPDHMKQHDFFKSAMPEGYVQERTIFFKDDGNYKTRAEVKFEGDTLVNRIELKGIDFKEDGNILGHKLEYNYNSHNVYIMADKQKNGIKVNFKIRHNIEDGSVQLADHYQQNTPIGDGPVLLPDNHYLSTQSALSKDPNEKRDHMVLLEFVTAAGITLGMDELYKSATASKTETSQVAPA

Molecule: Xenopus rhodopsin (endogenous, in tadpole eye extracts) (from UniProt P29403 1-354) (receptor)
- decrease in basal [^35S]GTPγS binding to tadpole membranes after treatment with 10 mM hydroxylamine [2]: 50%

Molecule: COc1ccccc1N1CCN(CCN(C(=O)c2ccc(F)cc2)c2ccccn2)CC1 [[methyl-^3H]-MPPF]
- Kd ([5]; transgenic Xenopus tadpole membranes expressing 5HT1AR-GFP-1D4, 0.05% saponin, saturation binding, read-out: binding affinity KD): 6.7 nM
- Kd (5HT1A receptor [6]): 0.35 ± 0.1 nM

Molecule: [3H]C([3H])([3H])Oc1ccccc1N1CCN(CCN(C(=O)c2ccc(F)cc2)c2ccccn2)CC1 [[methyl-^3H]-MPPF]
- difference in dissociation constants KD between transgenic tadpoles and CHO cells [7]: about 17 fold
- specific binding to transgenic 5HT1A tadpole membranes ([5]; FIG. 14, 0.05% saponin, nonspecific binding with 10 μM serotonin): dose-dependent manner

Molecule: NO [hydroxylamine]
- effect on [35S]GTPγS binding (CHO membranes): without significant effect
- reduction of basal [35S]GTPγS binding [8]: ~50%

Second part, the molecule after the results:

- [^35S]GTPγS binding to transgenic tadpole membranes, stimulated by the agonist serotonin [1]: 50%
Molecule: h5HT1AR-GFP-1D4 fusion protein (from UniProt P08908 1-422) (receptor)

- stimulation of [35S]GTPγS binding (5HT1A receptor [3]; tadpole membranes pretreated with 10 mM hydroxylamine): about 50%
- effect on [35S]GTPγS binding (5HT1A receptor [4]): specifically stimulated
Molecule: NCCc1c[nH]c2ccc(O)cc12 [serotonin, 5-hydroxytryptamine]

- effect on [35S]GTPγS binding (5HT1A receptor [3]; transgenic tadpole membranes): significantly block
- effect on [35S]GTPγS binding (5HT1A receptor [4]): significantly block
Molecule: O=C(CCCN1CCC2(CC1)C(=O)NCN2c1ccccc1)c1ccc(F)cc1 [spiperone]
